Assay results published in US6737383B1, “Herbicidal oxadiazolidines” (priority 1999, dated 2004).

Experiments:
blackgrass = experiment: Test B pre/postemergence blackgrass; type: in vivo, Alopecurus myosuroides
Outline: (§1)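 Response is a visual 0-to-10 score relative to untreated plants, where 0 means no effect and 10 means complete control, taken twelve to sixteen days after application. Treatments went onto soil at planting and onto foliage of 1- to 4-leaf plants, using a surfactant-containing non-phytotoxic solvent.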

cocklebur = experiment: Test B pre/postemergence cocklebur; type: in vivo, Xanthium strumarium
Outline: as §1

wheat = experiment: Test B pre/postemergence wheat; type: in vivo, Triticum aestivum
Outline: as §1

rape = experiment: Test B pre/postemergence rape; type: in vivo, Brassica napus
Outline: as §1

wild oat = experiment: Test B pre/postemergence wild oat; type: in vivo, Avena fatua
Outline: as §1

giant foxtail = experiment: Test B pre/postemergence giant foxtail; type: in vivo, Setaria faberii
Outline: as §1

bamyardgrass = experiment: Test B flood test barnyardgrass; type: in vivo, Echinochloa crus-galli
Outline: (§2)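 Read-out is a visual response score from 0 (no effect) to 10 (complete control), assigned by comparison with untreated controls. Treatment was applied at the 2-leaf stage, and plants stayed in the greenhouse for twelve to sixteen days before scoring.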

soybean = experiment: Test B pre/postemergence soybean; type: in vivo, Glycine max
Outline: as §1

surinam grass = experiment: Test B pre/postemergence surinam grass; type: in vivo, Brachiaria decumbens
Outline: as §1

pigweed = experiment: Test B pre/postemergence pigweed; type: in vivo, Amaranthus retroflexus
Outline: as §1

morningglory = experiment: Test B pre/postemergence morningglory; type: in vivo, Ipomoea hederacea
Outline: as §1

velvetleaf = experiment: Test B pre/postemergence velvetleaf; type: in vivo, Abutilon theophrasti
Outline: as §1

corn = experiment: Test B pre/postemergence corn; type: in vivo, Zea mays
Outline: as §1

smallflower flatsedge = experiment: Test B flood test smallflower flatsedge; type: in vivo, Cyperus difformis
Outline: as §2

crabgrass = experiment: Test B pre/postemergence crabgrass; type: in vivo, Digitaria sanguinalis
Outline: as §1

duck salad = experiment: Test B flood test duck salad; type: in vivo, Heteranthera limosa
Outline: as §2

rice = experiment: Test B flood test rice; type: in vivo, Oryza sativa
Outline: as §2

sugar beet = experiment: Test B pre/postemergence sugar beet; type: in vivo, Beta vulgaris
Outline: as §1

purple nutsedge = experiment: Test B pre/postemergence purple nutsedge; type: in vivo, Cyperus rotundus
Outline: as §1

[1] = Postemergence, Rate 31 g/ha, visual rating, scale 0 to 10 (0 no effect, 10 complete control)
[2] = Postemergence, Rate 62 g/ha, scale 0 to 10, 0 is no effect, 10 is complete control
[3] = Postemergence, Rate 125 g/ha, scale of 0 to 10 where 0 is no effect and 10 is complete control
[4] = Postemergence, Rate 250 g/ha, scale of 0 to 10, 0 is no effect, 10 is complete control
[5] = Preemergence, Rate 31 g/ha, visual rating, scale 0 to 10 (0 no effect, 10 complete control)
[6] = Preemergence, Rate 62 g/ha, scale of 0 to 10 where 0 is no effect and 10 is complete control
[7] = Preemergence, Rate 125 g/ha, scale of 0 to 10 where 0 is no effect and 10 is complete control
[8] = Preemergence, Rate 250 g/ha, scale 0 to 10 (0 no effect, 10 complete control)
[9] = Rate 31 g/ha, Pre-emergence section (flood test species), scale 0 to 10
[10] = Rate 62 g/ha, flood test species, Pre-emergence, visual evaluation after twelve to sixteen days
[11] = Rate 125 g/ha, under heading Pre-emergence, flood test species, visual evaluation after twelve to sixteen days
[12] = Rate 250 g/ha, Pre-emergence (flood test species), scale 0 to 10, 0 is no effect, 10 is complete control

CC(C)N(C(=O)n1oc(=O)n(CCC2=NOCCC2)c1=O)c1ccc(F)cc1 [Compound 656]
8: Crabgrass plant response rating (crabgrass; [4]) | Plant response rating, Crabgrass (crabgrass; [8])
9: Blackgrass plant response rating (blackgrass; [4]) | Giant foxtail plant response rating (giant foxtail; [3]) | Giant foxtail plant response rating (giant foxtail; [4])
0: Cocklebur plant response rating (cocklebur; [1]) | Plant response rating, Cocklebur (cocklebur; [2]) | Cocklebur plant response rating (cocklebur; [3]) | Cocklebur plant response rating (cocklebur; [4]) | Cocklebur plant response rating (cocklebur; [5]) | Cocklebur plant response rating (cocklebur; [6]) | Cocklebur plant response rating (cocklebur; [7]) | Plant response rating, Cocklebur (cocklebur; [8]) | Wheat plant response rating (wheat; [1]) | Plant response rating, Wheat (wheat; [2]) | Wheat plant response rating (wheat; [3]) | Wheat plant response rating (wheat; [6]) | Wheat plant response rating (wheat; [7]) | Plant response rating, Wheat (wheat; [8]) | Rape plant response rating (rape; [1]) | Plant response rating, Rape (rape; [2]) | Rape plant response rating (rape; [3]) | Rape plant response rating (rape; [6]) | Rape plant response rating (rape; [7]) | Plant response rating, Rape (rape; [8]) | Wild oats plant response rating (wild oat; [1]) | Plant response rating, Wild oats (wild oat; [2]) | Wild oats plant response rating (wild oat; [3]) | Wild oats plant response rating (wild oat; [6]) | Wild oats plant response rating (wild oat; [7]) | Giant foxtail plant response rating (giant foxtail; [1]) | Barnyardgrass plant response rating (bamyardgrass; [9]) | Plant response rating, Barnyardgrass (0 to 10 scale, 0 is no effect, 10 is complete control) (bamyardgrass; [10]) | Barnyardgrass plant response rating (0 to 10 scale, 0 is no effect, 10 is complete control) (bamyardgrass; [11]) | Barnyardgrass plant response rating (bamyardgrass; [12]) | Soybean plant response rating (soybean; [6]) | Soybean plant response rating (soybean; [7]) | Plant response rating, Soybean (soybean; [8]) | B. signalgrass plant response rating (surinam grass; [1]) | Plant response rating, B. signalgrass (surinam grass; [2]) | B. signalgrass plant response rating (surinam grass; [5]) | B. signalgrass plant response rating (surinam grass; [6]) | Redroot pigweed plant response rating (pigweed; [1]) | Plant response rating, Redroot pigweed (pigweed; [2]) | Redroot pigweed plant response rating (pigweed; [3]) | Redroot pigweed plant response rating (pigweed; [6]) | Morningglory plant response rating (morningglory; [1]) | Morningglory plant response rating (morningglory; [6]) | Morningglory plant response rating (morningglory; [7]) | Plant response rating, Morningglory (morningglory; [8]) | Velvetleaf plant response rating (velvetleaf; [1]) | Plant response rating, Velvetleaf (velvetleaf; [2]) | Velvetleaf plant response rating (velvetleaf; [3]) | Corn plant response rating (corn; [1]) | Plant response rating, Corn (corn; [2]) | Corn plant response rating (corn; [3]) | Corn plant response rating (corn; [4]) | Corn plant response rating (corn; [5]) | Corn plant response rating (corn; [6]) | Corn plant response rating (corn; [7]) | Plant response rating, Corn (corn; [8]) | S. Flatsedge plant response rating (smallflower flatsedge; [9]) | Plant response rating, S. Flatsedge (0 to 10 scale, 0 is no effect, 10 is complete control) (smallflower flatsedge; [10]) | S. Flatsedge plant response rating (0 to 10 scale, 0 is no effect, 10 is complete control) (smallflower flatsedge; [11]) | S. Flatsedge plant response rating (smallflower flatsedge; [12]) | Crabgrass plant response rating (crabgrass; [1]) | Plant response rating, Crabgrass (crabgrass; [2]) | Crabgrass plant response rating (crabgrass; [3]) | Ducksalad plant response rating (duck salad; [9]) | Plant response rating, Ducksalad (0 to 10 scale, 0 is no effect, 10 is complete control) (duck salad; [10]) | Ducksalad plant response rating (0 to 10 scale, 0 is no effect, 10 is complete control) (duck salad; [11]) | Ducksalad plant response rating (duck salad; [12]) | Rice plant response rating (rice; [9]) | Plant response rating, Rice (0 to 10 scale, 0 is no effect, 10 is complete control) (rice; [10]) | Rice plant response rating (0 to 10 scale, 0 is no effect, 10 is complete control) (rice; [11]) | Rice plant response rating (rice; [12]) | Sugarbeets plant response rating (sugar beet; [1]) | Plant response rating, Sugarbeets (sugar beet; [2]) | Sugarbeets plant response rating (sugar beet; [3]) | Sugarbeets plant response rating (sugar beet; [6]) | Sugarbeets plant response rating (sugar beet; [7]) | Nutsedge plant response rating (purple nutsedge; [1]) | Plant response rating, Nutsedge (purple nutsedge; [2]) | Nutsedge plant response rating (purple nutsedge; [3]) | Nutsedge plant response rating (purple nutsedge; [6]) | Nutsedge plant response rating (purple nutsedge; [7]) | Plant response rating, Nutsedge (purple nutsedge; [8])
4: Blackgrass plant response rating (blackgrass; [6]) | Blackgrass plant response rating (blackgrass; [7]) | Giant foxtail plant response rating (giant foxtail; [5]) | Giant foxtail plant response rating (giant foxtail; [6]) | Redroot pigweed plant response rating (pigweed; [7]) | Velvetleaf plant response rating (velvetleaf; [7])
3: Plant response rating, Giant foxtail (giant foxtail; [2]) | Plant response rating, Sugarbeets (sugar beet; [8])
2: Blackgrass plant response rating (blackgrass; [5]) | Plant response rating, Soybean (soybean; [2]) | Soybean plant response rating (soybean; [3]) | Plant response rating, B. signalgrass (surinam grass; [3]) | B. signalgrass plant response rating (surinam grass; [7]) | Morningglory plant response rating (morningglory; [3]) | Morningglory plant response rating (morningglory; [4]) | Velvetleaf plant response rating (velvetleaf; [6])
5: Plant response rating, Blackgrass (blackgrass; [8]) | B. signalgrass plant response rating (surinam grass; [4])
1: Soybean plant response rating (soybean; [1]) | Plant response rating, Morningglory (morningglory; [2])
7: Blackgrass plant response rating (blackgrass; [3]) | Crabgrass plant response rating (crabgrass; [6]) | Crabgrass plant response rating (crabgrass; [7])
6: Blackgrass plant response rating (blackgrass; [1]) | Plant response rating, Blackgrass (blackgrass; [2]) | Plant response rating, Wild oats (wild oat; [8]) | Plant response rating, B. signalgrass (surinam grass; [8]) | Plant response rating, Redroot pigweed (pigweed; [8]) | Plant response rating, Velvetleaf (velvetleaf; [8]) | Crabgrass plant response rating (crabgrass; [5])
10: Giant foxtail plant response rating (giant foxtail; [7]) | Plant response rating, Giant foxtail (giant foxtail; [8])
